# Laboratory results as given in ChEMBL document CHEMBL1201862, “PubChem BioAssay data set” (2004).
# The source made the active and inactive calls.
# Columns and labels:
# [1] = target: T1, Neuropeptides B/W receptor type 1 (Homo sapiens, UniProt P48145); experiment: Fluorescence-based dose response cell-based high throughput screening assay to identify antagonists of the G-protein coupled receptor 7 (GPR7). [Related pubchem assays: 1952 (Screening assay (GPR7 antagonists).), 1880 (Summary AID.)]; assay type: functional
# T1 sequence (P48145 whole entry): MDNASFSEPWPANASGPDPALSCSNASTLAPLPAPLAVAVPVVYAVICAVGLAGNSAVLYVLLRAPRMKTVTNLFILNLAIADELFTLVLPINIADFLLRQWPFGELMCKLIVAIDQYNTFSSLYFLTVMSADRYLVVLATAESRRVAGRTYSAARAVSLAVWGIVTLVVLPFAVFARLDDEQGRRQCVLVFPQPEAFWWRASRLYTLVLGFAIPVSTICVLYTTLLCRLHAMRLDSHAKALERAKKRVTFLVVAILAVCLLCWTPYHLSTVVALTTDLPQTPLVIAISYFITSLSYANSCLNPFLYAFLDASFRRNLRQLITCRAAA
# [2] = target: T2, Melanin-concentrating hormone receptor 1 (Homo sapiens, UniProt Q99705); experiment: Fluorescence-based counterscreen for antagonists of the G-protein coupled receptor 7 (GPR7): cell-based high throughput dose response assay to identify antagonists of the melanin-concentrating hormone receptor 1 (MCHR1).; assay type: functional
# T2 sequence (Q99705 whole entry): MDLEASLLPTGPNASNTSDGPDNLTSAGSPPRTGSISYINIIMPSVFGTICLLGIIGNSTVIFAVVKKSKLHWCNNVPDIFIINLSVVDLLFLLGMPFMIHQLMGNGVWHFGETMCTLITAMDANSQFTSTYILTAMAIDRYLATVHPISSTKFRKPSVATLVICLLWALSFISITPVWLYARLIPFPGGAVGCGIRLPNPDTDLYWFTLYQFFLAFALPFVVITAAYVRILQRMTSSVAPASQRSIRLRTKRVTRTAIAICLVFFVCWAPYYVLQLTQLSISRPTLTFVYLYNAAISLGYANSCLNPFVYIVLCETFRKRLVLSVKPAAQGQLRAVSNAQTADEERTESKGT
# [3] = target: T2, Melanin-concentrating hormone receptor 1; experiment: Late-stage fluorescence-based counterscreen for antagonists of the G-protein coupled receptor 7 (GPR7): cell-based dose response assay to identify antagonists of the melanin-concentrating hormone receptor 1 (MCHR1). [Related pubchem assays (depositor defined):AID1861, AID1880, AID1952, AID2148, AID2251, AID2257, AID485339]; assay type: functional
# [4] = target: T1, Neuropeptides B/W receptor type 1; experiment: human NPBW1 receptor blockade, IC50 – cell-based, fluorescence, dose response, late-stage follow-up (AID 463251); assay type: functional
# [5] = target: Intestinal-type alkaline phosphatase (Homo sapiens, UniProt P09923); experiment: Dose Response confirmation of uHTS hits from a small molecule inhibitors of human intestinal alkaline phosphatase via a luminescent assay. [Related pubchem assays (depositor defined):AID2544, AID2574]; assay type: functional
# Chain of Intestinal-type alkaline phosphatase (P09923 whole entry): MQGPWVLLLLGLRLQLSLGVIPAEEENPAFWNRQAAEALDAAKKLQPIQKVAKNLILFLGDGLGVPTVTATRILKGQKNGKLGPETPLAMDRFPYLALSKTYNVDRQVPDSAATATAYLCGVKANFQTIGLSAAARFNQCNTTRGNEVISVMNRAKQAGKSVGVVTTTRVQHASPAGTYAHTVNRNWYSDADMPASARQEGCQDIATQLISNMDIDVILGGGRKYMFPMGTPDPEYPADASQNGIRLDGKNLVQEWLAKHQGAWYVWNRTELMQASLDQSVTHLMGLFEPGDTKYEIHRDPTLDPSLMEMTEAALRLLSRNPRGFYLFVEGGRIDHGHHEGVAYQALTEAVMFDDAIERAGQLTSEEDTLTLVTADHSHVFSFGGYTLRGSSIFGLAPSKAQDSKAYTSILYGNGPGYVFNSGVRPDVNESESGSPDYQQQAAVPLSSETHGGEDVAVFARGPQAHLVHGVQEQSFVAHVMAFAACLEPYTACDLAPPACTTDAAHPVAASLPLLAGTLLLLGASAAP
# HeLa = experiment: viability loss in HeLa cells – cell-based, 24 h, cherry-picked samples, cytotoxicity control, dose response (AID 504726); assay type: functional; details: Homo sapiens;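 note: potency for cytotoxicity as loss of luminescence signal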
# ORF 73 = ORF 73 (Human herpesvirus 8, UniProt O40947); experiment: KSHV LANA DNA-binding disruption – biochemical, fluorescence polarization, cherry-picked samples, dose response (AID 504725); set-up: species or system Human gammaherpesvirus 8;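 note: fluorescence polarization of a labeled DNA duplex reporting LANA DNA binding; potency is for inhibitors that block LANA binding to the DNA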
# Genome polyprotein = Genome polyprotein (dengue virus type 2, UniProt P29990); experiment: flavivirus cap methylation enzyme inhibition – biochemical, confirmation dose response, primary screen (AID 588689); assay type: functional
# [6] = target: T3, Small ubiquitin-related modifier 1 (Homo sapiens, UniProt P63165); experiment: SUMO1 protein interaction blockers, potency – biochemical, fluorescence polarization, uHTS hits, dose response (AID 624382); assay type: functional; details: read-out: IC50_Mean
# T3 sequence (P63165 whole entry): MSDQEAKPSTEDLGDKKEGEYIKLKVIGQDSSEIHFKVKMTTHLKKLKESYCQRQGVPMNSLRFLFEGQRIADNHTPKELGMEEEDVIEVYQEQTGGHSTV
# [7] = target: T3, Small ubiquitin-related modifier 1; experiment: SUMO1 protein-protein binding blockers, potency – biochemical, FRET, dose response (AID 624383); assay type: functional; details: read-out: IC50_Mean
# [8] = target: T4, Rac GTPase-activating protein 1 (Homo sapiens, UniProt Q9H0H5); experiment: blockers of MgcRacGAP-driven Rac1 GTP hydrolysis – biochemical, ADP Hunter fluorescence, primary and confirmatory, confirmation (AID 624330); assay type: functional
# T4 sequence (Q9H0H5 whole entry): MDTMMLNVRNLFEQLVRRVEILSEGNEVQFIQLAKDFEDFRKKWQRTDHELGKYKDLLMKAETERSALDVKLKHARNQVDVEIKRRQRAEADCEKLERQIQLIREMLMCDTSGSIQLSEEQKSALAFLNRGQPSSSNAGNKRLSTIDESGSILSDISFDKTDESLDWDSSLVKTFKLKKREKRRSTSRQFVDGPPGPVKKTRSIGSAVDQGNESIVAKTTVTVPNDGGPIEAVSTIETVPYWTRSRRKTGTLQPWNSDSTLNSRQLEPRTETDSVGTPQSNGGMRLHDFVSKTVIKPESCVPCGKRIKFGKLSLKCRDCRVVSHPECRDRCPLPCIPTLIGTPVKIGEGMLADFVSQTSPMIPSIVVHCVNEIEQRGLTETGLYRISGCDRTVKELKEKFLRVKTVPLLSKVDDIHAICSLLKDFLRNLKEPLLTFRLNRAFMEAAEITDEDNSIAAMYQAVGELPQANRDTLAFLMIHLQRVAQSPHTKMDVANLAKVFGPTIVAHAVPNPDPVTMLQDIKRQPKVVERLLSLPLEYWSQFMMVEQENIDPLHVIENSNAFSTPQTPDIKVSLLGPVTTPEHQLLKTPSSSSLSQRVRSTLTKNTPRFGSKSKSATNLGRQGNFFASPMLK
# Caspase-6 = target: T5, Caspase-6 (Homo sapiens, UniProt P55212); experiment: inhibition of CASP6 peptide cleavage – biochemical, VEID-R110 fluorescence, cherry-pick, dose response (AID 720632)
# T5 sequence (P55212 whole entry): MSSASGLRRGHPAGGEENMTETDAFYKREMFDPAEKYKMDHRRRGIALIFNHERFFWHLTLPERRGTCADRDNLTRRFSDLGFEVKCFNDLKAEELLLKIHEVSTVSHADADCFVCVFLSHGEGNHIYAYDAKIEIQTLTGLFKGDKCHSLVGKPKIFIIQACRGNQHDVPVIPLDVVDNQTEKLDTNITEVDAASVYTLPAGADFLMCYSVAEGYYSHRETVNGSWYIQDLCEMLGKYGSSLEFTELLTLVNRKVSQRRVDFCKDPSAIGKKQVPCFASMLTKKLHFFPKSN
# Aspartyl aminopeptidase = Aspartyl aminopeptidase (Plasmodium falciparum 3D7, UniProt Q8I2J3)
# Chain of Aspartyl aminopeptidase (Q8I2J3 whole entry): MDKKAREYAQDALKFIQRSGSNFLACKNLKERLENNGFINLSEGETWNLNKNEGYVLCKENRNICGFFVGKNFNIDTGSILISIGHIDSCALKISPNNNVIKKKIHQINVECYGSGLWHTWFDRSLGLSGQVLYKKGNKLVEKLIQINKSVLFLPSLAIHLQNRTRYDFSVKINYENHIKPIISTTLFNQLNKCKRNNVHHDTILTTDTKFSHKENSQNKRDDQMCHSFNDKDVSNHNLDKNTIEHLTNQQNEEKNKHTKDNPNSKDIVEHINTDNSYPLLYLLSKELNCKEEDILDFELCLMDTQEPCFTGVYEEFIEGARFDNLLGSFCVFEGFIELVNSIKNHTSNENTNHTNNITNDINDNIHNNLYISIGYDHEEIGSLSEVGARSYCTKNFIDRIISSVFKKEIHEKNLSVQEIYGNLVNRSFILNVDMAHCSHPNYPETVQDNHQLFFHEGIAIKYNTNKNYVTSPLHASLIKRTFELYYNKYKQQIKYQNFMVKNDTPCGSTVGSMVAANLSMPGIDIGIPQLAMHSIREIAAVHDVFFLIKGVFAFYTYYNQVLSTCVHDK
# Procathepsin L = Procathepsin L (Homo sapiens, UniProt P07711)
# Chain of Procathepsin L (P07711 whole entry): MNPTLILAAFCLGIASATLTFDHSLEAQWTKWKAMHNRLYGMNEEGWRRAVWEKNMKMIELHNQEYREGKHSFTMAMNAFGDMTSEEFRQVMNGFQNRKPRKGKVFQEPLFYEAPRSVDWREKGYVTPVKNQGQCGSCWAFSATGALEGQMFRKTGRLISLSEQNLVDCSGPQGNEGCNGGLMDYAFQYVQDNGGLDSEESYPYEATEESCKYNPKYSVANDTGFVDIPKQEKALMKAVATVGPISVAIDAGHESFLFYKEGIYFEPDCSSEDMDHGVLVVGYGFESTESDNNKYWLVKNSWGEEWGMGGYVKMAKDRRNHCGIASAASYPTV
# [9] = THP-1 cell cytotoxicity, dose response, cytotoxicity control for non-replicating M. tuberculosis project (AID 489025); assay type: functional
# [10] = Luminescence Cell-Based Dose Retest to Confirm Inhibitors of Cancer Stem Cells. [Related pubchem assays (depositor defined):AID2717, AID2721]; assay type: functional; details: Homo sapiens
# [11] = HepG2 cell cytotoxicity, dose response, cytotoxicity control for non-replicating M. tuberculosis project (AID 489018); assay type: functional; details: Mycobacterium tuberculosis
# [12] = Vero E6 cell cytotoxicity, dose response, cytotoxicity control for non-replicating M. tuberculosis project, secondary assay (AID 492998); assay type: functional, VeroE6; details: Vero C1008
# [13] = target: Neurotensin receptor type 1 (Homo sapiens, UniProt P30989); assay type: functional;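 note: Image-based confirmatory dose-response assay measuring agonist activity at NTR1; NTR1-expressing U2OS osteosarcoma cells imaged for beta-arrestin GFP spot formation; agonist potency where compounds increase beta-arrestin recruitment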
# Chain of Neurotensin receptor type 1 (P30989 whole entry): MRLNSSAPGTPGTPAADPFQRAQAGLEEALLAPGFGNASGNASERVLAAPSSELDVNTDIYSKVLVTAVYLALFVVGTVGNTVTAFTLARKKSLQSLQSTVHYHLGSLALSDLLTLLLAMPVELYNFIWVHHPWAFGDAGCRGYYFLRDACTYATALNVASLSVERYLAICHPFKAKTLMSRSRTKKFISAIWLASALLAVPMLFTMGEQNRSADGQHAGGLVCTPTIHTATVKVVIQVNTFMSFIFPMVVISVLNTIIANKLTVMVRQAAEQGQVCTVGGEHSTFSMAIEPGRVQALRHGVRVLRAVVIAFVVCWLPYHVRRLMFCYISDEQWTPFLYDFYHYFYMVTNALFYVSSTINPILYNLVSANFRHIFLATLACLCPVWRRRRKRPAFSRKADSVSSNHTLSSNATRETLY
# cells [14] = assay type: functional
# [15] = target: T6, Heat shock factor protein 1 (Mus musculus, UniProt P38532); experiment: enhancement of HSF1-driven luciferase signal – cell-based, NIH3T3, luminescence, dose retest, confirmation (AID 435004); assay type: functional;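 note: stress induced by proteasome inhibitor MG132 added 30 min after compound; luciferase reporter driven by HSF1 response element in NIH3T3 cells; actives raise luminescence as potentiators of the MG132 stress response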
# T6 sequence (P38532 whole entry): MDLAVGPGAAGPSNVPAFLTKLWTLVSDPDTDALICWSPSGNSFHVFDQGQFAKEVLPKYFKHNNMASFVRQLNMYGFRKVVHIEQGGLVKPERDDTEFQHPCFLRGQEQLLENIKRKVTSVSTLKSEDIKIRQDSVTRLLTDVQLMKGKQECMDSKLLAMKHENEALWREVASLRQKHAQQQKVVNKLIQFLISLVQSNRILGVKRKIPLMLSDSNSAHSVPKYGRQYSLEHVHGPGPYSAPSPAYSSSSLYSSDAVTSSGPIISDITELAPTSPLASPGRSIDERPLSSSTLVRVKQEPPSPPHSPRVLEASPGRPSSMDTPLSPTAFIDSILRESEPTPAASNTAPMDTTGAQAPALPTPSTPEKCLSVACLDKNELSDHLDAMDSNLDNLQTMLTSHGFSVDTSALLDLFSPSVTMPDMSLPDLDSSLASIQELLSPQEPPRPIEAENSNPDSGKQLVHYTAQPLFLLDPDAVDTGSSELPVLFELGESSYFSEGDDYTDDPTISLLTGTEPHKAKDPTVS
# [16] = target: T7, Eukaryotic translation initiation factor 4H (Homo sapiens, UniProt Q15056); experiment: inhibitors of translation initiation factor eIF4H – SAR follow-up (AID 435011); assay type: functional
# [17] = target: T8, Polyadenylate-binding protein 1 (Homo sapiens, UniProt P11940); experiment: PABP inhibition in translation initiation, SAR follow-up (AID 435018); assay type: functional
# T8 sequence (P11940 whole entry): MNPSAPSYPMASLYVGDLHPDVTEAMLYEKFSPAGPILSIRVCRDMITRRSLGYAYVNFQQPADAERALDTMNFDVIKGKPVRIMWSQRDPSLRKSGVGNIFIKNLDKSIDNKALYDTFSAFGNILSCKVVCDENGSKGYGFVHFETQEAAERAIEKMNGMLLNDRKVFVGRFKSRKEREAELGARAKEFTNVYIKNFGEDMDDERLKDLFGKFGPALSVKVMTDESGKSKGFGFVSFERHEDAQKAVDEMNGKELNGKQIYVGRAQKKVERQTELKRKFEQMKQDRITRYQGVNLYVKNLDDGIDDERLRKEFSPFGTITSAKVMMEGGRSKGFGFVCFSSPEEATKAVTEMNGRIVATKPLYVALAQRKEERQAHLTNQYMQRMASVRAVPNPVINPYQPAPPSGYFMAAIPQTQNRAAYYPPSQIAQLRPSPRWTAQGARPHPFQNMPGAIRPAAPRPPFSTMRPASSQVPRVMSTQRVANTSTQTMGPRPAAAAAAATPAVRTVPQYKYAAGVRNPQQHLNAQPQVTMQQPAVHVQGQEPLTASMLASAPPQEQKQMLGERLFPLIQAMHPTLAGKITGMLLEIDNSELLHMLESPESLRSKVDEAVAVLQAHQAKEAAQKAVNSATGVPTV
# [18] = luciferase reporter signal suppression in cells – H4 neuroglioma cells, luminescence, dose response (AID 1990); assay type: functional, cell-based
# [19] = luciferase reporter signal reduction – luminescence, H4-C neuroglioblastoma cells, dose response (AID 2458); assay type: functional, cell-based;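 note: H4 neuroglioblastoma cells stably carrying a luciferase reporter gene fusion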
# cells [20] = assay type: functional, cell-based
# [21] = Luminescence Cell-Based Dose Response HTS to Identify Inhibitors of 5'UTR Stem-Loop Driven Prion Protein mRNA Translation in H4 Neuroglioblastoma Cells. [Related pubchem assays: 1827 (Project Summary), 1813 (Primary HTS)]; assay type: functional
# [22] = alpha-synuclein stem-loop translation blockers – luminescence, H4 neuroglioblastoma cells, dose confirmation, confirmation (AID 2454); assay type: functional, cell-based;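 note: H4 neuroglioblastoma cells carrying an alpha-synuclein 5'UTR luciferase reporter; potency for inhibition of the luciferase signal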
# [23] = target: T9, Microphthalmia-associated transcription factor (Homo sapiens, UniProt O75030); experiment: reducers of TRPM1 reporter luminescence, concentration series – cell-based, SK-MEL-5, cherry-picked, set 3, MITF inhibitor project, dose response (AID 493073); assay type: functional;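 note: SK-MEL-5 melanoma cells with luciferase driven by the MITF target TRPM1 promoter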
# T9 sequence (O75030 whole entry): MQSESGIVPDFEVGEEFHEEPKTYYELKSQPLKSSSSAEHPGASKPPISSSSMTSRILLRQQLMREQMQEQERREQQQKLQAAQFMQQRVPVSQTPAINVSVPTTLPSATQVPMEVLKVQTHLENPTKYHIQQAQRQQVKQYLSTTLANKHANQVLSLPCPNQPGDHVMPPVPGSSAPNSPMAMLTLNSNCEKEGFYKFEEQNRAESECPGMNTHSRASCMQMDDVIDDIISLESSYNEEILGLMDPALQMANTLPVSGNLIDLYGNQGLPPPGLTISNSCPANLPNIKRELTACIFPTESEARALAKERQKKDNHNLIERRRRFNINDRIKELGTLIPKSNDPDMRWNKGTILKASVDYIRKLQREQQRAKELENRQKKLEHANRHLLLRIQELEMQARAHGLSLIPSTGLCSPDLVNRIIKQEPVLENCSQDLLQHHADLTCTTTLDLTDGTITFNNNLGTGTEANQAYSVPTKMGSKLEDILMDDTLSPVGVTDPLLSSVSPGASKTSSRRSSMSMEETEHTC
# [24] = target: T7, Eukaryotic translation initiation factor 4H; experiment: eIF4H binding inhibition – biochemical, uHTS, fluorescence polarization, translation initiation inhibitor project, primary screen (AID 2012)
# [25] = target: T8, Polyadenylate-binding protein 1; experiment: blockers of PABP interaction with poly(A) – biochemical, fluorescence polarization, […] (AID 2014)
# SUMO-activating enzyme [26] = target: T10, SUMO-activating enzyme (Homo sapiens, UniProt Q9UBT2); experiment: blockers of UBC9-mediated SUMO conjugation – biochemical, AlphaScreen, SUMOylation inhibitor project, confirmation (AID 2018); assay type: functional
# T10 sequence (Q9UBE0 whole entry): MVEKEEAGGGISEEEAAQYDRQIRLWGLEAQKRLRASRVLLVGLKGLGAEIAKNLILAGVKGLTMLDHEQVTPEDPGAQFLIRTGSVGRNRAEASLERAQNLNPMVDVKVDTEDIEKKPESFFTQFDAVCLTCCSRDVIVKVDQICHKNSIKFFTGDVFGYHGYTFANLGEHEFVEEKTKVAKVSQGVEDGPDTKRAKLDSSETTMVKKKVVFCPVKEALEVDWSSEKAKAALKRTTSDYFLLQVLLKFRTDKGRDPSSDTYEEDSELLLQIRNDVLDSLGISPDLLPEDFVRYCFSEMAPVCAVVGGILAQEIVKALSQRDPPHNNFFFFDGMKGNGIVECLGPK
# T10 sequence (Q9UBT2 whole entry): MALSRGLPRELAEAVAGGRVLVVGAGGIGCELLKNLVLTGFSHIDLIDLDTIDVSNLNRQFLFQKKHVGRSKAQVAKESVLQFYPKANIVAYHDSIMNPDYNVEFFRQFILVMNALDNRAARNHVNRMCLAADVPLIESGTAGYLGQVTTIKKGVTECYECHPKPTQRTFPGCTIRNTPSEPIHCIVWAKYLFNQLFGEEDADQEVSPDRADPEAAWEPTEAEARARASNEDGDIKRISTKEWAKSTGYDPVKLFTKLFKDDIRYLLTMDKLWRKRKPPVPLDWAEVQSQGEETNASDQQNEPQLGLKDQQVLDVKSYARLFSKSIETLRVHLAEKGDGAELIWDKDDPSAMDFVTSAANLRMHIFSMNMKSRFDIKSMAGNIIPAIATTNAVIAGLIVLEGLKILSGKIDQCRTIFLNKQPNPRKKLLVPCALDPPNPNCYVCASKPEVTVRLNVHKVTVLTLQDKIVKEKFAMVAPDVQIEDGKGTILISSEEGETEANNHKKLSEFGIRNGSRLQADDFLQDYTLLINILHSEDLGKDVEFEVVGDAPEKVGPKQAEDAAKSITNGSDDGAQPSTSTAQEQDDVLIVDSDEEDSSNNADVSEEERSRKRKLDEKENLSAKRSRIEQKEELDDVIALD
# SUMO-activating enzyme [27] = target: T10, SUMO-activating enzyme; experiment: blockers of SAE1/SAE2–UBC9 SUMO transfer – biochemical, HTRF, uHTS, primary screen (AID 2006); assay type: protein-complex assay
# [28] = target: Induced myeloid leukemia cell differentiation protein Mcl-1 (Homo sapiens, UniProt Q07820); assay type: functional
# Chain of Induced myeloid leukemia cell differentiation protein Mcl-1 (Q07820 whole entry): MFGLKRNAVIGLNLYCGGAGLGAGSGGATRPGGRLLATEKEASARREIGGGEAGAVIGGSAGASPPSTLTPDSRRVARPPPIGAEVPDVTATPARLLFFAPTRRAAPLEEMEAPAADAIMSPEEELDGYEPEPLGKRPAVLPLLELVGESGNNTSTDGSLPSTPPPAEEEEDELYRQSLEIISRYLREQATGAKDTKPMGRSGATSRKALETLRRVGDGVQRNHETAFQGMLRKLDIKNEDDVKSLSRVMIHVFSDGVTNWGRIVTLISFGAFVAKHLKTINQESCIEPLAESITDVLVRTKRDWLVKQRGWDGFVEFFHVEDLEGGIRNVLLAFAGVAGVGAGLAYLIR
structure (smiles),measurement,setting,value
COc1cc(OC)c(S(=O)(=O)N2CCCCC2)cc1S(=O)(=O)N1CCCCC1,IC50,[1],7.02 µM (active)
same,IC50,[2],> 43.8 µM (not active)
same,IC50,[3],> 20 µM (inactive)
same,IC50,[4],> 20 µM (inactive)
CCn1c2ccccc2c2cc(NC(=O)c3coc(=O)c(Br)c3)ccc21,IC50,[5],55.6 µM (inactive)
CNC(S)=Nc1cccc(C(=O)OC)c1,AC50,HeLa,213 µM (active)
CC(=O)Nc1ccc(S(=O)(=O)Nc2nc3ccccc3nc2Nc2ccc(C(=O)O)c(O)c2)cc1,AC50,ORF 73,42.3 µM (active)
same,IC50,Genome polyprotein,> 100 µM (active)
same,IC50,[6],> 66.6 µM (inactive)
same,IC50,[7],88.1 µM (inactive)
same,IC50,[8],166 µM (active)
same,AC50,Caspase-6,13.2 µM (active)
CCOC(=O)c1ccc(NC(=O)Nn2cnnc2)cc1,IC50,Aspartyl aminopeptidase,2.09 µM (active)
same,IC50,Procathepsin L,> 59.6 µM (not active)
Cc1ccc2c(c1)c1c(n2CC(O)CNC2CCCCC2)CCCC1 (configuration not stated),CC50,[9],12.1 µM (active)
same,AC50,[10],9.21 µM (active)
same,CC50,[11],11.9 µM (active)
same,CC50,[12],> 20 µM (active)
same,EC50,[13],17 µM (active)
same,IC50,cells [14],33.4 µM (active)
CCOc1cc(/C=C2/C(=O)ON=C2C)ccc1OCc1ccc(F)cc1,EC50,[13],16.2 µM (active)
same,EC50,[15],8.12 µM (active)
Cc1ccccc1N(CC(=O)NC1CCCCC1)C(=O)CCCC(=O)Nc1ccccn1,IC50,[1],> 43.8 µM (not active)
same,IC50,[2],> 43.8 µM (not active)
CCc1ccccc1N=C(S)Nn1cnnc1,IC50,Aspartyl aminopeptidase,3.03 µM (active)
same,IC50,Procathepsin L,> 59.6 µM (not active)
CC(C)(C)NN/C=C1\C(=O)N(c2ccc(Cl)cn2)C(=O)c2ccccc21,IC50,[5],> 100 µM (inactive)
CCOC(=O)Cc1c(Sc2ccccc2)c2cc(C)ccc2n1C,IC50,[16],> 100 µM (inactive)
same,IC50,[17],> 100 µM (inactive)
Cc1ccc(C(=O)c2cccc(N)c2)cc1C,EC50,[18],< 0.1 µM (active)
same,EC50,[19],1.11 µM (active)
same,EC50,cells [20],2.86 µM (active)
same,EC50,[21],< 0.1 µM (active)
same,EC50,[22],1.46 µM (active)
same,AC50,[23],3.62 µM (active)
O=C(C1CCCCN1Cc1ccc(Cl)cc1)N1CCN(c2ccc([N+](=O)[O-])cc2)CC1 (configuration not stated),IC50,[3],1.8 µM (active)
same,IC50,[4],1.6 µM (active)
Cc1ccc(OCC(=O)N/N=C/C=C/c2ccco2)cc1,IC50,[24],15.6 µM (active)
same,IC50,[25],45.5 µM (active)
NC(=S)n1nc(-c2ccc([N+](=O)[O-])cc2)c(/N=N/c2cccc(Cl)c2)c1O,IC50,SUMO-activating enzyme [26],3.29 µM (active)
same,IC50,SUMO-activating enzyme [27],51.5 µM (active)
same,IC50,[28],1.44 µM (active)
